From patent US6420559B1, “1-(4-arylpiperazin-1-yl)-ω-[N-(α,ω-dicarboximido)]-alkanes useful as uro-selective α1-adrenoceptor blockers” (Ranbaxy Laboratories Limited, priority 1997, dated 2002)
Where a name gives a salt, the structure may show the parent alone.

Legend:
[1] = tested on: anaesthetized normotensive rats; test: In vivo blood pressure, anaesthetized normotensive rats, intravenous route; set-up: species or system rat; conditions: 0.3 mg/kg intravenous, 3 hours observation
Description: (§1) Antihypertensive effect of selected compounds according to the invention were studied for their ability to lower blood pressure in anaesthetized and conscious normotensive and spontaneously hypertensive rats via intravenous, oral and intraduodenal routes.
Male wistar rats were anaesthetized with urethane (2.5 g/kg). Femoral vein and carotid artery were cannulated. Blood pressure and heart rate were recorded using Statham pressure transducer. Data was recorded on Grass polygraph as well as using online data acquisition system (Buxco AT). Intravenously administered compounds of the invention were initially tested at 0.3 mg/kg over a period of 3 hours for their effect on blood pressure and the results are shown in Table 1. For a select few of the compounds, the blood pressure lowering effect upon intravenous administration was also studied at dosages of 0.03, 0.1, 0.3, and 1 mg/kg.

[2] = molecular target: Muscarinic cholinergic receptor (Rattus norvegicus, UniProt P08483); test: In vitro receptor selectivity, rat trachea; assay type: cell-based
Sequence of Muscarinic cholinergic receptor (P08483 whole entry): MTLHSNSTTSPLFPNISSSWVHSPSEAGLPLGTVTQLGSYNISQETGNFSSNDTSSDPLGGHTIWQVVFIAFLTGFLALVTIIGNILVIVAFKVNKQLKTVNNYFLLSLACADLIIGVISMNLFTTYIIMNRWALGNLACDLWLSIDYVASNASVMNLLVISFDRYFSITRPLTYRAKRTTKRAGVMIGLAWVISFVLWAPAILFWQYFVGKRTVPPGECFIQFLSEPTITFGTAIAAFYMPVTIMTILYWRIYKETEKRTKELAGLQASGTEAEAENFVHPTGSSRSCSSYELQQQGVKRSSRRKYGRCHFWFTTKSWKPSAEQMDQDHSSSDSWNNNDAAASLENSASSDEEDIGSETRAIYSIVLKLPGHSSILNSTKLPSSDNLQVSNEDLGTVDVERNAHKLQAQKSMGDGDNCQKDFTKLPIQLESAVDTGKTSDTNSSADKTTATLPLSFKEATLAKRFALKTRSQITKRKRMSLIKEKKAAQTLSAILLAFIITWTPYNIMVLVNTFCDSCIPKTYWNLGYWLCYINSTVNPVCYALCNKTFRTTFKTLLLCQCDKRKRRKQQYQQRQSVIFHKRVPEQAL
Description: (§2) Selectivity of action of the present compounds was tested against a range of different receptors, e.g., β1- and α2-adrenergic, muscarinic cholinergic, serotoninergic (5-HT2A), histaminergic (H1), angiotensin II, endothelin (ETA and B,), as well as calcium and potassium channels. Rat aorta was used to study the effect of the compounds on 5-HT2A, ETA, calcium and potassium channels. Angiotensin II receptor antagonistic activity was studied in rabbit aorta. Muscarinic cholinergic receptor and ETB receptor antagonistic activity was studied in rat trachea, while guinea pig trachea was used to study H1 receptor antagonistic activity. Electrically stimulated rat vas deferens was used to investigate the effect of α2-adrenoceptors, while β1-adrenoceptor antagonistic activity was studied using electrically stimulated rat ventricular strips. Results of this selectivity study is shown in (Table 2).

[3] = tested on: anaesthetized normotensive rats; test: Mean arterial pressure in anaesthetized normotensive rats, intraduodenal route; assay type: in vivo, rat
Description: as §1
Male wistar rats were fasted for 18 hours. Rats were anaesthetized with urethane. Femoral vein and carotid artery were cannulated. A catheter was placed in the duodenum following lapratomy. The compounds of the present invention (at dosages of 0.3, 1, 3 and 10 mg/kg) were administered in the duodenum and blood pressure was monitored for 3 hours.

[4] = tested on: conscious spontaneously hypertensive rats; test: Systolic blood pressure in conscious spontaneously hypertensive rats, oral; assay type: in vivo, rat
Description: Spontaneously hypertensive rats weighing between 250-300 g were used in this study. Rats were fasted overnight. Blood pressure was monitored from tail artery using semi-automatic noninvasive blood pressure monitoring apparatus. Compounds of the present invention (at dosages of 1, 3, 10, and 30 mg/kg) were administered orally. Blood pressure was monitored prior to and 1.5, 4, 6 and 24 hours after drug administration.

[5] = tested on: conscious freely moving normotensive rats; test: Mean arterial blood pressure in conscious freely moving normotensive rats, oral; assay type: in vivo, rat
Description: Femoral artery of normotensive male wistar rats, maintained on an overnight light diet, were catheterized under pentobarbitone anaesthesia (35 mg/kg). Femoral artery catheter was exteriorized through the neck region for blood pressure recording. […] Blood pressure and heart rate were recorded with the help of Statham pressure transducer on a Grass polygraph and the results are shown in Table 4.

anaesthetized dogs = test: In vivo selectivity study, phenylephrine-induced blood pressure and intraurethral pressure in anaesthetized dogs; set-up: species or system dog; conditions: iv, against phenylephrine dose response
Description: Male mongrel dogs (12-20 Kg) were anaesthetized with pentobarbitone sodium (35 mg/kg, iv). Trachea was intubated for artificial respiration. Femoral artery and femoral vein were cannulated for recording blood pressure and for administration of drug solutions, respectively. Blood pressure was recorded on a polygraph through a pressure transducer. A paramedian incision was made lateral to the penis and the bladder was exposed. Urine was drained through a cannula put directly into the bladder and it was guided into the urethra gently and was placed at the prostatic urethra. Balloon was inflated with 2 cc air and its placement was confirmed by digital pressure. Intraurethral pressure was recorded on the polygraph through a pressure transducer. Graded dose response relationship of phenylephrine (1-16 μg/kg, iv) was obtained on prostatic pressure and blood pressure, prior to administration of the compounds of the present invention. Compounds 2, 9, and 13 (at dosages of 0.01, 0.03, 0.1, and 0.3 mg/kg) were administered intravenously 10 min before obtaining phenylephrine dose response curves. Results were analyzed and pseudo pKB values were calculated as described in Kenny et al (1996).

Potassium Channel = test: In vitro receptor selectivity, rat aorta; assay type: cell-based; conditions: NE: No effect
Description: as §2

α1-adrenergic = conditions: cited from earlier work

SMILES: O=C1CCC(=O)N1CCCN1CCN(c2ccc(F)cc2)CC1 (as salt: hydrochloride) [Compound 1, 1-[4-(4-Fluorophenyl)piperazin-1-yl]-3-(2,5-dioxopyrrolidin-1-yl)propane]
- melting point: 246 to 247 °C

SMILES: COc1ccccc1N1CCN(CCCN2C(=O)CCC2=O)CC1 (as salt: hydrochloride) [Compound 2, 1-[4-(2-Methoxyphenyl)piperazin-1-yl]-3-(2,5-dioxopyrrolidin-1-yl)propane]
- melting point: 199 to 202 °C

SMILES: O=C1CCCC(=O)N1CCCN1CCN(c2ccc(Cl)cc2)CC1 (as salt: hydrochloride) [Compound 15, 1-[4-(4-Chlorophenyl)piperazin-1-yl]-3-(2,6-dioxopiperidin-1-yl)propane]
- melting point: 206 to 208 °C

SMILES: Cc1ccccc1N1CCN(CCCN2C(=O)CCCC2=O)CC1 (as salt: hydrochloride) [Compound 18, 1-[4-(2-Methylphenyl)piperazin-1-yl]-3-(2,6-dioxopiperidin-1-yl)propane]
- melting point: 206 to 207 °C

SMILES: O=C1CCC(=O)N1CCCN1CCN(c2ccc(F)cc2)CC1 [Compound 1, 1-[4-(4-Fluorophenyl)piperazin-1-yl]-3-(2,5-dioxopyrrolidin-1-yl)propane]
- Duration [1]: 15.0 min
- In Vivo BP Fall in mmHg [1]: 5.0 mmHg

SMILES: COc1ccccc1N1CCN(CCCN2C(=O)CCC2=O)CC1 [Compound 2, 1-[4-(2-Methoxyphenyl)piperazin-1-yl]-3-(2,5-dioxopyrrolidin-1-yl)propane]
- Duration [1]: 120.0 min
- In Vivo BP Fall in mmHg [1]: 25 mmHg
- pKB Muscarinic [2]: 5.0
- Duration of Action ([3]; 1 mg/kg intraduodenal): >2.5 h
- Mean Arterial Pressure (% Change from basal) ([3]; 1 mg/kg intraduodenal): −19%
- Duration of Action ([3]; 3 mg/kg intraduodenal): >2.5 h
- Mean Arterial Pressure (% Change from basal) ([3]; 3 mg/kg intraduodenal): −43%
- Duration of Action ([3]; 10 mg/kg intraduodenal): >2.5 h
- Mean Arterial Pressure (% Change from basal) ([3]; 10 mg/kg intraduodenal): −42%
- Systolic Pressure (% Change from basal) (at 6 hours) ([4]; 1 mg/kg oral): −7.0%
- Systolic Pressure (% Change from basal) (at 6 hours) ([4]; 3 mg/kg oral): −12.0%
- Systolic Pressure (% Change from basal) (at 6 hours) ([4]; 10 mg/kg oral): −13.0%
- Systolic Pressure (% Change from basal) (at 6 hours) ([4]; 30 mg/kg oral): −17.0%
- Mean Arterial Pressure (% Change from basal) ([5]; 3 mg/kg oral): −14%
- Mean Arterial Pressure (% Change from basal) ([5]; 10 mg/kg oral): −10%
- pseudo pKB Blood Pressure (anaesthetized dogs): 6.9
- pseudo pKB Intraurethral Pressure (anaesthetized dogs): 7.60

SMILES: COc1ccccc1N1CCN(CCCCN2C(=O)CCC2=O)CC1 [Compound 9, 1-[4-(2-Methoxyphenyl)piperazin-1-yl]-4-(2,5-dioxopyrrolidin-1-yl)butane]
- Duration [1]: >180 min
- In Vivo BP Fall in mmHg [1]: 46 mmHg
- pKB Muscarinic [2]: 5.0
- Duration of Action ([3]; 1 mg/kg intraduodenal): >3.0 h
- Mean Arterial Pressure (% Change from basal) ([3]; 1 mg/kg intraduodenal): −19%
- Duration of Action ([3]; 3 mg/kg intraduodenal): >3.0 h
- Mean Arterial Pressure (% Change from basal) ([3]; 3 mg/kg intraduodenal): −53%
- Duration of Action ([3]; 10 mg/kg intraduodenal): >3.0 h
- Mean Arterial Pressure (% Change from basal) ([3]; 10 mg/kg intraduodenal): −57%
- Systolic Pressure (% Change from basal) (at 6 hours) ([4]; 1 mg/kg oral): −0.4%
- Systolic Pressure (% Change from basal) (at 6 hours) ([4]; 3 mg/kg oral): −7.0%
- Systolic Pressure (% Change from basal) (at 6 hours) ([4]; 10 mg/kg oral): −24.0%
- Systolic Pressure (% Change from basal) (at 6 hours) ([4]; 30 mg/kg oral): −25.0%
- Mean Arterial Pressure (% Change from basal) ([5]; 1 mg/kg oral): −4%
- Mean Arterial Pressure (% Change from basal) ([5]; 10 mg/kg oral): −11%
- pseudo pKB Blood Pressure (anaesthetized dogs): 7.4
- pseudo pKB Intraurethral Pressure (anaesthetized dogs): 7.9

SMILES: COc1ccccc1N1CCN(CCCN2C(=O)CCCC2=O)CC1 [Compound 13, 1-[4-(2-Methoxyphenyl)piperazin-1-yl]-3-(2,6-dioxopiperidin-1-yl)propane]
- Duration [1]: >180 min
- In Vivo BP Fall in mmHg [1]: 50.0 mmHg
- pKB Muscarinic [2]: 5.5
- pKB Potassium Channel (Potassium Channel): 5
- Duration of Action ([3]; 1 mg/kg intraduodenal): <3.0 h
- Mean Arterial Pressure (% Change from basal) ([3]; 1 mg/kg intraduodenal): −32%
- Duration of Action ([3]; 3 mg/kg intraduodenal): >3.0 h
- Mean Arterial Pressure (% Change from basal) ([3]; 3 mg/kg intraduodenal): −40%
- Duration of Action ([3]; 10 mg/kg intraduodenal): >3.0 h
- Mean Arterial Pressure (% Change from basal) ([3]; 10 mg/kg intraduodenal): −42%
- Systolic Pressure (% Change from basal) (at 6 hours) ([4]; 1 mg/kg oral): −7.0%
- Systolic Pressure (% Change from basal) (at 6 hours) ([4]; 3 mg/kg oral): −18.0%
- Systolic Pressure (% Change from basal) (at 6 hours) ([4]; 10 mg/kg oral): −19.0%
- Systolic Pressure (% Change from basal) (at 6 hours) ([4]; 30 mg/kg oral): −14.0%
- Mean Arterial Pressure (% Change from basal) ([5]; 1 mg/kg oral): −5%
- Mean Arterial Pressure (% Change from basal) ([5]; 3 mg/kg oral): −10%
- pseudo pKB Blood Pressure (anaesthetized dogs): 7.1
- pseudo pKB Intraurethral Pressure (anaesthetized dogs): 8.1

SMILES: O=C1CCCC(=O)N1CCCN1CCN(c2ccc(F)cc2)CC1 [Compound 14, 1-[4-(4-Fluorophenyl)piperazin-1-yl]-3-(2,6-dioxopiperidin-1-yl)propane]
- Duration [1]: 60.0 min
- In Vivo BP Fall in mmHg [1]: 20.0 mmHg
- melting point: 200 to 202 °C

SMILES: O=C1CCCC(=O)N1CCCN1CCN(c2ccccc2F)CC1 [Compound 17, 1-[4-(2-Fluorophenyl)piperazin-1-yl]-3-(2,6-dioxopiperidin-1-yl)propane]
- Duration [1]: 120.0 min
- In Vivo BP Fall in mmHg [1]: 50.0 mmHg

SMILES: Cc1ccccc1N1CCN(CCCN2C(=O)CCCC2=O)CC1 [Compound 18, 1-[4-(2-Methylphenyl)piperazin-1-yl]-3-(2,6-dioxopiperidin-1-yl)propane]
- Duration [1]: >150 min
- In Vivo BP Fall in mmHg [1]: 40.0 mmHg

SMILES: COc1cc2nc(N3CCN(C(=O)c4ccco4)CC3)nc(N)c2cc1OC [prazosin]
- α1-adrenergic blocking activity (pKi) (α1-adrenergic): > 8
